# Source: patent US20250319032A1, “PHARMACEUTICAL COMPOSITIONS OF RIBOCICLIB” (Novartis AG, priority 2024, published 2025)
# Assay: Nitrite content (ion chromatography; LC-FLD with DAN derivatisation; Griess test) in drug substance, intermediates, reagents, solvents, filters, excipients
# Type: physicochemical
# Design: Nitrite content T0 (enhanced method): unit: ppm
# Details: drug substance manufactured at Menges, T0
# Text: The method of testing for the presence and/or total amount of nitrites that is used in the methods of the invention may be any method which allows for the detection and/or quantitation of nitrites in a composition. For example, the method may be the Griess test. The Griess test allows for the detection and analysis of nitrite by the formation of a red-pink colour upon treatment of a nitrite-containing sample with the Griess reagent. The Griess reagent consists of two components in an acidic solution: an aniline derivative and a coupling agent. The most common arrangements use sulfanilamide and N-(1-naphthyl)ethylenediamine. For example 0.2% N-(1-naphthyl)ethylenediamine dihydrochloride and 2% sulfanilamide in 5% phosphoric acid may be used as a Griess reagent. Other aniline derivatives that may be used in a Griess reagent include sulfanilic acid, nitroaniline, and p-aminoacetophenone.
# The Griess test involves two subsequent reactions, as shown in the scheme below. When the aniline derivative (e.g., sulfanilamide) is added, the nitrite ion reacts with it in the Griess diazotization reaction to form a diazonium salt, which then reacts with N-(1-naphthyl)ethylenediamine in an azo-coupling reaction, forming a pink-red azo-dye. Using a spectrophotometer, the nitrite concentration can then be quantitatively detected.
# Additionally purified water; e.g. Milli Q • 2.
# • 10 mM KH2PO4 Weigh accurately about 1.361 g of KH2PO4 into a 1 L volumetric flask, dissolve it in approximately 950 mL of additionally purified water and adjust the pH to 8.0 (with 2.7 M NaOH). Make up to the mark with additionally purified water. • 0.62 M HCl Add a few millilitres (e.g. 20 mL) of additionally purified water to a 200 mL volumetric flask, add 10.280 mL of concentrated HCl, mix and make up to the mark with additionally purified water. • 2.7 M NaOH Weigh accurately about 1.092 g of NaOH pellets into a 10 mL volumetric flask and dissolve it in additionally purified water. Cool to room temperature and make up to the mark with the same solvent. • Reagent DAN Weigh accurately about 5 mg of 2,3-diaminophthalene into a 100 mL volumetric flask and dissolve it with the solvent (methanol/water 1:1 (v/v)). Dilute up to the mark and ensure visual full dissolution. Use an amberglass flask. • Mobile phase A Mix 950 mL of 10 mM KH2PO4 solution (pH=8) and add 50 mL methanol. • Mobile phase B Methanol. • Solvent Methanol/water 1:1 (v/v), e.g. mix 2000 mL of additionally purified water and 2000 mL methanol.
# • Instrument: HPLC with FLR detector; e.g. Waters Arc or equivalent • Column: C18 50×4.6 mm, 2.5 μm, e.g. XBridge C18 2.5 μm, 4.650 mm or equivalent
# • Notes It is recommended to wear additional protective equipment (face mask and gloves) during weighing. • It is recommended to wash the column with 50% methanol after the analysis (example of preparation: mix 500 mL methanol and 500 m1 of additionally purified water). • It is recommended to rinse the injector with solvent after each injection. • All glassware and tools should be rinsed with additionally purified water before use. It is not recommended to leave the solutions open for a longer time before measurement. • Blank solution 1 Transfer 1 mL of solvent into a HPLC vial and perform derivatization as described below. • Blank solution 2 Transfer 10 mL of solvent into a single use glass vial and mix it on a magnetic stirrer for 30 min. Transfer the solution into a 5 mL centrifuge tube and centrifuge for 10 min at 12000 rpm. […] Fill up to the mark with solvent and mix. • (Cnitrite≈0.0005 mg/mL) • Comparison solution Transfer 10 mL of nitrite stock solution into a 500 mL volumetric flask. • (2 parallels) Fill up to the mark with solvent and mix. • Transfer 1 mL solution into a HPLC vial and perform the derivatization as described below. • (Cnitrite≈100 ppb) • Sample solution Accurately weigh about 1000 mg of the sample into a glass vial for single use and add 10 mL of solvent.
row,Structure (SMILES),Nitrite content T0 (enhanced method)
1,CN(C)C(=O)c1cc2cnc(Nc3ccc(N4CCNCC4)cn3)nc2n1C1CCCC1.O=C(O)CCC(=O)O [Batch B692472],0.1
2,CN(C)C(=O)c1cc2cnc(Nc3ccc(N4CCNCC4)cn3)nc2n1C1CCCC1.O=C(O)CCC(=O)O [Batch B695104],0.5
3,CN(C)C(=O)c1cc2cnc(Nc3ccc(N4CCNCC4)cn3)nc2n1C1CCCC1.O=C(O)CCC(=O)O [Batch B695106],0.1
4,CN(C)C(=O)c1cc2cnc(Nc3ccc(N4CCNCC4)cn3)nc2n1C1CCCC1.O=C(O)CCC(=O)O [Batch B696587],<0.1
5,CN(C)C(=O)c1cc2cnc(Nc3ccc(N4CCNCC4)cn3)nc2n1C1CCCC1.O=C(O)CCC(=O)O [Batch B711867],<0.1

# Same assay, conditions: ribociclib base (LEE011 B10), ion chromatography
row,Structure (SMILES),Nitrite [ppm] LOD (1 ppm)
1,CN(C)C(=O)c1cc2cnc(Nc3ccc(N4CCNCC4)cn3)nc2n1C1CCCC1 [Batch B685591],<LOD
2,CN(C)C(=O)c1cc2cnc(Nc3ccc(N4CCNCC4)cn3)nc2n1C1CCCC1 [Batch B687416],<LOD

# Same assay, conditions: ribociclib succinate drug substance batches at release
Structure (SMILES),Nitrite NAP method (ppm),Nitrite NAT enhanced sample prep. (ppm)
CN(C)C(=O)c1cc2cnc(Nc3ccc(N4CCNCC4)cn3)nc2n1C1CCCC1.O=C(O)CCC(=O)O [Batch B692472],0.2,0.1
CN(C)C(=O)c1cc2cnc(Nc3ccc(N4CCNCC4)cn3)nc2n1C1CCCC1.O=C(O)CCC(=O)O [Batch B695104],0.3,0.5
CN(C)C(=O)c1cc2cnc(Nc3ccc(N4CCNCC4)cn3)nc2n1C1CCCC1.O=C(O)CCC(=O)O [Batch B695105],0.3,0.3
CN(C)C(=O)c1cc2cnc(Nc3ccc(N4CCNCC4)cn3)nc2n1C1CCCC1.O=C(O)CCC(=O)O [Batch B695106],0.2,0.1
CN(C)C(=O)c1cc2cnc(Nc3ccc(N4CCNCC4)cn3)nc2n1C1CCCC1.O=C(O)CCC(=O)O [Batch B696587],0.2,<0.1
CN(C)C(=O)c1cc2cnc(Nc3ccc(N4CCNCC4)cn3)nc2n1C1CCCC1.O=C(O)CCC(=O)O [Batch B696588],0.2,0.1
CN(C)C(=O)c1cc2cnc(Nc3ccc(N4CCNCC4)cn3)nc2n1C1CCCC1.O=C(O)CCC(=O)O [Batch B696589],0.2,<0.1
CN(C)C(=O)c1cc2cnc(Nc3ccc(N4CCNCC4)cn3)nc2n1C1CCCC1.O=C(O)CCC(=O)O [Batch B696590],0.3,0.4
CN(C)C(=O)c1cc2cnc(Nc3ccc(N4CCNCC4)cn3)nc2n1C1CCCC1.O=C(O)CCC(=O)O [Batch B698293],0.3,0.4
CN(C)C(=O)c1cc2cnc(Nc3ccc(N4CCNCC4)cn3)nc2n1C1CCCC1.O=C(O)CCC(=O)O [Batch B698294],0.2,0.2
CN(C)C(=O)c1cc2cnc(Nc3ccc(N4CCNCC4)cn3)nc2n1C1CCCC1.O=C(O)CCC(=O)O [Batch B698295],0.3,0.4
CN(C)C(=O)c1cc2cnc(Nc3ccc(N4CCNCC4)cn3)nc2n1C1CCCC1.O=C(O)CCC(=O)O [Batch B698296],0.4,0.3
CN(C)C(=O)c1cc2cnc(Nc3ccc(N4CCNCC4)cn3)nc2n1C1CCCC1.O=C(O)CCC(=O)O [Batch B698297],0.2,0.1
CN(C)C(=O)c1cc2cnc(Nc3ccc(N4CCNCC4)cn3)nc2n1C1CCCC1.O=C(O)CCC(=O)O [Batch B698298],0.2,<0.1
CN(C)C(=O)c1cc2cnc(Nc3ccc(N4CCNCC4)cn3)nc2n1C1CCCC1.O=C(O)CCC(=O)O [Batch B699003],0.1,<0.1
CN(C)C(=O)c1cc2cnc(Nc3ccc(N4CCNCC4)cn3)nc2n1C1CCCC1.O=C(O)CCC(=O)O [Batch B707657],0.2,0.1
CN(C)C(=O)c1cc2cnc(Nc3ccc(N4CCNCC4)cn3)nc2n1C1CCCC1.O=C(O)CCC(=O)O [Batch B708687],0.2,<0.1

Structure (SMILES),Nitrite NAP method (ppm),Nitrite NAT enhanced sample prep. (ppm)
CN(C)C(=O)c1cc2cnc(Nc3ccc(N4CCNCC4)cn3)nc2n1C1CCCC1.O=C(O)CCC(=O)O [Batch B708688],0.2,<0.1
CN(C)C(=O)c1cc2cnc(Nc3ccc(N4CCNCC4)cn3)nc2n1C1CCCC1.O=C(O)CCC(=O)O [Batch B709049],0.2,<0.1
CN(C)C(=O)c1cc2cnc(Nc3ccc(N4CCNCC4)cn3)nc2n1C1CCCC1.O=C(O)CCC(=O)O [Batch B709050],0.2,0.1
CN(C)C(=O)c1cc2cnc(Nc3ccc(N4CCNCC4)cn3)nc2n1C1CCCC1.O=C(O)CCC(=O)O [Batch B709051],0.2,<0.1
CN(C)C(=O)c1cc2cnc(Nc3ccc(N4CCNCC4)cn3)nc2n1C1CCCC1.O=C(O)CCC(=O)O [Batch B709938],0.2,<0.1
CN(C)C(=O)c1cc2cnc(Nc3ccc(N4CCNCC4)cn3)nc2n1C1CCCC1.O=C(O)CCC(=O)O [Batch B709939],0.2,<0.1
CN(C)C(=O)c1cc2cnc(Nc3ccc(N4CCNCC4)cn3)nc2n1C1CCCC1.O=C(O)CCC(=O)O [Batch B709940],0.2,<0.1
CN(C)C(=O)c1cc2cnc(Nc3ccc(N4CCNCC4)cn3)nc2n1C1CCCC1.O=C(O)CCC(=O)O [Batch B709941],0.1,0.1
CN(C)C(=O)c1cc2cnc(Nc3ccc(N4CCNCC4)cn3)nc2n1C1CCCC1.O=C(O)CCC(=O)O [Batch B710665],0.2,1.6
CN(C)C(=O)c1cc2cnc(Nc3ccc(N4CCNCC4)cn3)nc2n1C1CCCC1.O=C(O)CCC(=O)O [Batch B710666],0.5,<0.1
CN(C)C(=O)c1cc2cnc(Nc3ccc(N4CCNCC4)cn3)nc2n1C1CCCC1.O=C(O)CCC(=O)O [Batch B710668],0.2,0.1
CN(C)C(=O)c1cc2cnc(Nc3ccc(N4CCNCC4)cn3)nc2n1C1CCCC1.O=C(O)CCC(=O)O [Batch B710669],0.1,<0.1
CN(C)C(=O)c1cc2cnc(Nc3ccc(N4CCNCC4)cn3)nc2n1C1CCCC1.O=C(O)CCC(=O)O [Batch B711439],0.1,<0.1
CN(C)C(=O)c1cc2cnc(Nc3ccc(N4CCNCC4)cn3)nc2n1C1CCCC1.O=C(O)CCC(=O)O [Batch B711440],0.1,0.9
CN(C)C(=O)c1cc2cnc(Nc3ccc(N4CCNCC4)cn3)nc2n1C1CCCC1.O=C(O)CCC(=O)O [Batch B711866],0.2,<0.1
CN(C)C(=O)c1cc2cnc(Nc3ccc(N4CCNCC4)cn3)nc2n1C1CCCC1.O=C(O)CCC(=O)O [Batch B711867],0.1,0.1
CN(C)C(=O)c1cc2cnc(Nc3ccc(N4CCNCC4)cn3)nc2n1C1CCCC1.O=C(O)CCC(=O)O [Batch B711868],,<0.1
